US20020137929A1, “1 - (3-heterocyclylphenyl) isothiourea, -isourea, -guanidine and -amidine herbicidal agents” (Intellectual Property Department, BASF Aktiengesellschaft, priority 1998, published 2002)

Experiments:
GALAP (Galium) [1] = assay: Postemergence herbicidal evaluation; type: in vivo, Galium aparine; settings: postemergence
Method in brief: (§1)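 ~2-wk seedlings; postemergence spray, 40 psi; vehicle 1:1 acetone:water + 0.5% Tween 20; rate ≈0.0156–0.500 kg/ha; greenhouse hold; scored 4–5 wk after treatment, 0–9 scale vs control; repeat tests averaged.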

ECHCG (Barnyardgrass) = assay: Postemergence herbicidal evaluation; type: in vivo, Echinochloa crus-galli; settings: postemergence
Method in brief: as §1

AMBEL (Ragweed, Common) = assay: Postemergence herbicidal evaluation; type: in vivo, Ambrosia artemisifolia; settings: postemergence
Method in brief: as §1

[2] = test system: CHEAL (Lambsquarters, Common); assay: Postemergence herbicidal evaluation; type: in vivo, Chenopodium album; settings: postemergence
Method in brief: as §1

SETVI (Foxtail, Green) = assay: Postemergence herbicidal evaluation; type: in vivo, Setaria viridis; settings: postemergence
Method in brief: as §1

[3] = test system: SAGPY (Arrowhead (Pygmaea)); assay: Preemergence weed control under flooded paddy conditions; type: in vivo, Sagittaria pygmaea; settings: rated 3-4 weeks after treatment
Method in brief: (§2)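 Visual injury scored 0-9 against control three to four weeks post-treatment, greenhouse-grown. Application: acetone/water (50/50) solutions dosed directly into flood water (1.5-3 cm over silt loam, planted top 0.5 cm), roughly 0.0313 to 0.500 kg/ha active ingredient.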

ZEAMX (Corn, Field) = assay: Preemergence herbicidal evaluation; type: in vivo, Zea mays; settings: preemergence, rated 4-5 weeks after treatment, 0-9 scale
Method in brief: (§3)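 Seeds were mixed with potting soil and planted on about one inch of soil, then sprayed with test compound in aqueous acetone at about 0.0156 to 0.500 kg per hectare. Plants grew under standard greenhouse care and were visually rated 0-9 against untreated controls 4-5 weeks post-treatment.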

ORYSAT (Rice, Tebonnet) = assay: Postemergence herbicidal evaluation; type: in vivo, Oryza sativa, (L.) Tebonnet; settings: postemergence
Method in brief: as §1

CASOB (Sicklepod) [4] = assay: Preemergence herbicidal evaluation; type: in vivo, Cassia obtusifolia; settings: preemergence, rated 4-5 weeks after treatment, 0-9 scale
Method in brief: as §3

CYPSE (Flatsedge) [5] = assay: Preemergence weed control under flooded paddy conditions; type: in vivo, Cyperus serotinus; settings: rated 3-4 weeks after treatment
Method in brief: as §2

CYPSE (Flatsedge) [6] = assay: Postemergence weed control under flooded paddy conditions; type: in vivo, Cyperus serotinus; settings: postemergence weeds, rated 3 to 4 weeks after treatment
Method in brief: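 Weeds 3 to 5 cm tall and rice seedlings at the 1.5 to 2.5 leaf stage were flooded, with water held 1.5 to 3 cm above the soil. Compounds in 50/50 v/v aqueous/acetone went into the flood water at about 0.0313 to 0.500 kg/ha. Visual 0-9 ratings versus control were made 3 to 4 weeks later.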

GALAP (Galium) [7] = assay: Preemergence herbicidal evaluation; type: in vivo, Galium aparine; settings: preemergence, rated 4-5 weeks after treatment, 0-9 scale
Method in brief: as §3

CASOB (Sicklepod) [8] = assay: Postemergence herbicidal evaluation; type: in vivo, Cassia obtusifolia; settings: postemergence
Method in brief: as §1

[9] = test system: GLXMAW (Soybean, Williams); assay: Postemergence herbicidal evaluation; type: in vivo, Glycine max, (L.) Merr. cv Williams; settings: postemergence
Method in brief: as §1

CYPIR (Rice Flatsedge) = assay: Preemergence weed control under flooded paddy conditions; type: in vivo, Cyperus iria; settings: rated 3-4 weeks after treatment
Method in brief: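 Seeds or propagules sown in top 0.5 cm of silt loam soil, flooded 1.5 to 3 cm above surface throughout. Compound in 50/50 v/v aqueous/acetone pipetted into flood water at about 0.0313 to 0.500 kg/ha. Visual 0-9 rating versus control after three to four weeks in greenhouse.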

Q: For `CCOC(=O)CN1C(=O)C(CC(=O)NOC)SC1=Nc1cc(-n2c(=O)cc(C(F)(F)F)n(C)c2=O)c(F)cc1Cl` (stereo not shown) [Compound 83, Ethyl 2-{{2-chloro-5-[3,6-dihydro-3-methyl-2,6-dioxo-4-(trifluoromethyl)-1(2H)-pyrimidinyl]-4-fluorophenyl}imino}-5-[(methoxycarbamoyl)methyl]-4-oxo-3-thiazolidineacetate], which GALAP herbicidal rating (GALAP (Galium) [1]; rate 0.0156 kg/ha) is on record?
A: 0.0

Q: And the GALAP herbicidal rating (GALAP (Galium) [1]; rate 0.0313 kg/ha)?
A: 0.0

Q: And the GALAP herbicidal rating (GALAP (Galium) [1]; rate 0.0625 kg/ha)?
A: 3.0

Q: What about the GALAP herbicidal rating (GALAP (Galium) [1]; rate 0.1250 kg/ha) of the same compound?
A: 5.0

Q: What about the ECHCG herbicidal rating (ECHCG (Barnyardgrass); rate 0.0156 kg/ha) of the same compound?
A: 0.0

Q: And the ECHCG herbicidal rating (ECHCG (Barnyardgrass); rate 0.0313 kg/ha)?
A: 2.0

Q: What about the ECHCG herbicidal rating (ECHCG (Barnyardgrass); rate 0.0625 kg/ha) of the same compound?
A: 4.0

Q: What about the ECHCG herbicidal rating (ECHCG (Barnyardgrass); rate 0.1250 kg/ha) of the same compound?
A: 9.0

Q: What about the AMBEL herbicidal rating (AMBEL (Ragweed, Common); rate 0.0156 kg/ha) of the same compound?
A: 9.0

Q: What about the AMBEL herbicidal rating (AMBEL (Ragweed, Common); rate 0.0313 kg/ha) of the same compound?
A: 9.0

Q: And the AMBEL herbicidal rating (AMBEL (Ragweed, Common); rate 0.0625 kg/ha)?
A: 9.0

Q: What about the AMBEL herbicidal rating (AMBEL (Ragweed, Common); rate 0.1250 kg/ha) of the same compound?
A: 9.0

Q: What about the CHEAL herbicidal rating ([2]; rate 0.0156 kg/ha) of the same compound?
A: 5.0

Q: What about the CHEAL herbicidal rating ([2]; rate 0.0313 kg/ha) of the same compound?
A: 7.0

Q: What about the CHEAL herbicidal rating ([2]; rate 0.0625 kg/ha) of the same compound?
A: 9.0

Q: What about the CHEAL herbicidal rating ([2]; rate 0.1250 kg/ha) of the same compound?
A: 9.0

Q: What about the SETVI herbicidal rating (SETVI (Foxtail, Green); rate 0.0156 kg/ha) of the same compound?
A: 0.0

Q: What about the SETVI herbicidal rating (SETVI (Foxtail, Green); rate 0.0313 kg/ha) of the same compound?
A: 2.0

Q: And the SETVI herbicidal rating (SETVI (Foxtail, Green); rate 0.0625 kg/ha)?
A: 8.0

Q: What about the SETVI herbicidal rating (SETVI (Foxtail, Green); rate 0.1250 kg/ha) of the same compound?
A: 8.0

Q: What about the “SAGPY herbicidal effect rating” value ([3]; 0.0313 kg/ha) of the same compound?
A: 7.0

Q: And the “SAGPY herbicidal effect rating” value ([3]; 0.0625 kg/ha)?
A: 7.0

Q: What about the “SAGPY herbicidal effect rating” value ([3]; 0.1250 kg/ha) of the same compound?
A: 7.0

Q: And the “SAGPY herbicidal effect rating” value ([3]; 0.2500 kg/ha)?
A: 9.0

Q: What about the ZEAMX rating (ZEAMX (Corn, Field); 0.0156 kg/ha) of the same compound?
A: 0.0

Q: What about the ZEAMX rating (ZEAMX (Corn, Field); 0.0313 kg/ha) of the same compound?
A: 0.0

Q: What about the ZEAMX rating (ZEAMX (Corn, Field); 0.0625 kg/ha) of the same compound?
A: 0.0

Q: And the ZEAMX rating (ZEAMX (Corn, Field); 0.1250 kg/ha)?
A: 0.0

Q: What about the ZEAMX rating (ZEAMX (Corn, Field); 0.2500 kg/ha) of the same compound?
A: 0.0

Q: What about the ZEAMX rating (ZEAMX (Corn, Field); 0.5000 kg/ha) of the same compound?
A: 7.0

Q: And the ORYSAT herbicidal rating (ORYSAT (Rice, Tebonnet); rate 0.0156 kg/ha)?
A: 1.5

Q: And the ORYSAT herbicidal rating (ORYSAT (Rice, Tebonnet); rate 0.0313 kg/ha)?
A: 2.5

Q: And the ORYSAT herbicidal rating (ORYSAT (Rice, Tebonnet); rate 0.0625 kg/ha)?
A: 3.0

Q: What about the ORYSAT herbicidal rating (ORYSAT (Rice, Tebonnet); rate 0.1250 kg/ha) of the same compound?
A: 3.0

Q: What about the CASOB rating (CASOB (Sicklepod) [4]; 0.0156 kg/ha) of the same compound?
A: 0.0

Q: And the CASOB rating (CASOB (Sicklepod) [4]; 0.0313 kg/ha)?
A: 0.0

Q: And the CASOB rating (CASOB (Sicklepod) [4]; 0.0625 kg/ha)?
A: 0.0

Q: What about the CASOB rating (CASOB (Sicklepod) [4]; 0.1250 kg/ha) of the same compound?
A: 0.0

Q: What about the CASOB rating (CASOB (Sicklepod) [4]; 0.2500 kg/ha) of the same compound?
A: 3.0

Q: What about the CASOB rating (CASOB (Sicklepod) [4]; 0.5000 kg/ha) of the same compound?
A: 3.0

Q: And the “CYPSE herbicidal effect rating” value (CYPSE (Flatsedge) [5]; 0.0313 kg/ha)?
A: 0.0

Q: What about the “CYPSE herbicidal effect rating” value (CYPSE (Flatsedge) [5]; 0.1250 kg/ha) of the same compound?
A: 3.0

Q: And the “CYPSE herbicidal effect rating” value (CYPSE (Flatsedge) [5]; 0.2500 kg/ha)?
A: 5.0

Q: What about the “Herbicidal rating CYPSE” value (CYPSE (Flatsedge) [6]; Rate 0.0313 kg/ha) of the same compound?
A: 0.0

Q: What about the “Herbicidal rating CYPSE” value (CYPSE (Flatsedge) [6]; Rate 0.1250 kg/ha) of the same compound?
A: 3.0

Q: And the “Herbicidal rating CYPSE” value (CYPSE (Flatsedge) [6]; Rate 0.2500 kg/ha)?
A: 5.0

Q: What about the GALAP rating (GALAP (Galium) [7]; 0.0156 kg/ha) of the same compound?
A: 0.0

Q: What about the GALAP rating (GALAP (Galium) [7]; 0.0313 kg/ha) of the same compound?
A: 0.0

Q: And the GALAP rating (GALAP (Galium) [7]; 0.0625 kg/ha)?
A: 0.0

Q: And the GALAP rating (GALAP (Galium) [7]; 0.1250 kg/ha)?
A: 0.0

Q: And the GALAP rating (GALAP (Galium) [7]; 0.2500 kg/ha)?
A: 9.0

Q: What about the GALAP rating (GALAP (Galium) [7]; 0.5000 kg/ha) of the same compound?
A: 9.0

Q: What about the CASOB herbicidal rating (CASOB (Sicklepod) [8]; rate 0.0156 kg/ha) of the same compound?
A: 0.0

Q: What about the CASOB herbicidal rating (CASOB (Sicklepod) [8]; rate 0.0313 kg/ha) of the same compound?
A: 9.0

Q: What about the CASOB herbicidal rating (CASOB (Sicklepod) [8]; rate 0.0625 kg/ha) of the same compound?
A: 7.0

Q: And the CASOB herbicidal rating (CASOB (Sicklepod) [8]; rate 0.1250 kg/ha)?
A: 9.0

Q: What about the GLXMAW herbicidal rating ([9]; rate 0.0156 kg/ha) of the same compound?
A: 4.5

Q: And the GLXMAW herbicidal rating ([9]; rate 0.0313 kg/ha)?
A: 6.5

Q: What about the GLXMAW herbicidal rating ([9]; rate 0.0625 kg/ha) of the same compound?
A: 8.0

Q: And the GLXMAW herbicidal rating ([9]; rate 0.1250 kg/ha)?
A: 8.5

Q: And the “CYPIR herbicidal effect rating” value (CYPIR (Rice Flatsedge); 0.0313 kg/ha)?
A: 5.0

Q: What about the “CYPIR herbicidal effect rating” value (CYPIR (Rice Flatsedge); 0.0625 kg/ha) of the same compound?
A: 6.0

Q: And the “CYPIR herbicidal effect rating” value (CYPIR (Rice Flatsedge); 0.1250 kg/ha)?
A: 6.0

Q: What about the “CYPIR herbicidal effect rating” value (CYPIR (Rice Flatsedge); 0.2500 kg/ha) of the same compound?
A: 7.0
